Measured values from ChEMBL document CHEMBL3877316, “Synthesis of pharmacologically important naphthoquinones and anticancer activity of 2-benzyllawsone through DNA topoisomerase-II inhibition” (Bioorg Med Chem, 2017).

What was measured:
[1] = Antiproliferative activity against human FADU cells after 48 hrs by SRB assay; assay type: functional, cell-based
[2] = Antiproliferative activity against human A549 cells after 48 hrs by SRB assay; assay type: functional, cell-based; conditions: A549, 48 h
[3] = Antiproliferative activity against human DLD1 cells after 48 hrs by SRB assay; assay type: functional, cell-based; conditions: DLD-1, 48 h
[4] = Antiproliferative activity against human DU145 cells after 48 hrs by SRB assay; assay type: functional, cell-based; conditions: DU-145, 48 h
[5] = Antiproliferative activity against human MCF7 cells after 48 hrs by SRB assay; assay type: functional, cell-based; conditions: MCF7, 48 h
[6] = Antiproliferative activity against HEK293 cells after 48 hrs by SRB assay; assay type: cell-based; conditions: Homo sapiens, HEK293, 48 h
FaDu = test: Inhibition of topoisomerase-2 in human FADU cells at 2 times antiproliferative IC50 after 24 hrs by ELISA relative to control; assay type: cell-based

Row | SMILES | IC50 [1] [µM] | IC50 [2] [µM] | IC50 [3] [µM] | IC50 [4] [µM] | IC50 [5] [µM] | IC50 [6] [µM] | inhibition (FaDu) [%]
1 | COc1cc(COC2=CC(=O)c3ccccc3C2=O)cc(OC)c1OC | 16.5 | 18.9 | > 30 | 25.2 | > 30 | > 150 | 14.7
2 | CCOC(=O)COC1=C(CC(=O)OCC)C(=O)c2ccccc2C1=O | 21.8 | 21.1 | > 30 | > 30 | > 30 | > 150 | 21.4
3 | CC1(C)CCC2=C(O1)c1ccccc1C(=O)C2=O [LAPACHONE] | – | – | – | – | – | 25.3 | 53.9
4 | COc1cc([C@@H]2c3cc4c(cc3[C@@H](O[C@@H]3O[C@@H]5CO[C@@H](C)O[C@H]5[C@H](O)[C@H]3O)[C@H]3COC(=O)[C@H]23)OCO4)cc(OC)c1O [ETOPOSIDE] | 16 | > 30 | 8.11 | 10.6 | > 30 | 7.51 | 51.7
5 | CCOC(=O)COC1=CC(=O)c2ccccc2C1=O | 19.7 | 15.5 | > 30 | > 30 | > 30 | > 150 | 16.8
